Laboratory results published in patent publication US20250179028A1, “ACRYLAMIDE COMPOUNDS” (NRG THERAPEUTICS LTD, priority 2022, published 2025).
Converted amounts (≈) assume the structure as drawn. Read-outs that look alike come from different tables or passages of the source.

What was measured:
[1] = test system: mPTP; assay: mPTP activity (Ca2+ retention) assay in isolated rat liver mitochondria; format: biochemical; conditions: for mPTP Rat liver pIC50: isolated rat liver mitochondria, average value from multiple experiments (n ≥ 2)
Summary of the method: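 Freshly isolated female Sprague Dawley rat liver mitochondria were energised with succinate and rotenone in pH 7.4 buffer with Fluo5N, then pre-incubated 10 min at RT with compound (30 μM to 1 nM final) before a 75 μM CaCl2 bolus. The IC50 used 10-min fluorescence, normalised to DMSO and 5 μM cyclosporin A.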

[2] = Hepatocyte clearance assay, human; format: in vitro ADME; conditions: cryopreserved primary human hepatocytes, average value from two experiments, read-out: Human heps Clint
Experimental: (§1) In vitro clearance studies were performed in primary rat and human hepatocytes (BiolVT). Vials of cryopreserved rat or human hepatocytes were thawed in a 37° C. water bath for 2 min. Cells were transferred into thawing medium (Williams' Medium E containing 30% Percoll, 1×GlutaMAX-1, 15 mM HEPES, 5% fetal bovine serum (FBS), 4 μg/ml insulin, 1 μM dexamethasone), centrifuged at 100 g for 10 min then resuspended in culture medium (Leibovitz's L-15 Medium) at a concentration of 0.5×10^6 viable cells/mL (number of viable cells assessed using AO/PI staining). Hepatocytes (198 μL) were transferred into wells of a 96-well non-coated plate and placed in a 37° C. incubator for 10 min. Test compound solutions were prepared from 10 mM stocks in DMSO, diluted to 100 μM in 50% (v/v in water) acetonitrile. Test compound samples (2 μl) were added to each well of hepatocytes and incubated at 37° C. Samples (25 μl) were collected at t=0, 15, 30, […] and 120 min, mixed with 6 volumes (150 μl) of acetonitrile containing internal standard (100 nM alprazolam, 200 nM caffeine and 100 nM tolbutamide), vortexed for 5 min and centrifuged for 45 min at 3220 g. An aliquot of supernatant (100 μL) was diluted with 100 μL ultra-pure water, and the mixture was used for LC/MS/MS analysis. All incubations were performed in duplicate. Peak areas were determined from extracted ion chromatograms. The slope value, k, was determined by linear regression of the natural logarithm of the remaining percentage of the parent drug vs. incubation time curve. The in vitro half-life (in vitro t½) was determined from the slope value: in vitro t½=0.693/k. Conversion of the in vitro t½ (in min) into the in vitro intrinsic clearance (in vitro CLint, in μL/min/1×10^6 cells) was done using the following equation (mean of duplicate determinations):
(§2) [formula] • V=incubation volume (0.2 mL) • N=number of hepatocytes per well (0.1×10^6 cells).

[3] = Hepatocyte clearance assay, rat; format: in vitro ADME; conditions: cryopreserved primary rat hepatocytes, average value from two experiments, read-out: Rat heps Clint
Experimental: as §1, §2

[4] = test system: mPTP; assay: mPTP activity assay in isolated rat brain mitochondria; format: biochemical; conditions: for mPTP Rat brain pIC50: isolated rat brain mitochondria
Experimental: mPTP activity was measured in brain mitochondria freshly isolated from female Sprague Dawley (250 to 300 gram) rats. Anaesthetised rats were perfused in-situ with ˜40 ml cold Dulbecco's Phosphate Buffered Saline (DPBS), then brains dissected and transferred into 30 ml Isolation Buffer (225 mM mannitol, 75 mM sucrose, 1 mM EGTA, adjusted to pH 7.4 with 1 M NaOH). The brain was minced using tweezers and a scalpel into ˜5 mm pieces then transferred into a 50 ml Potterton Dounce homogenization tube on ice containing 10 ml ice-cold isolation buffer (as above with addition of Complete Protease inhibitor; 1 tablet per 50 ml buffer).
Homogenisation was carried out using a […] pestle at 1800 rpm. The slurry was centrifuged at 2000 g for 10 min at 4° C., then the supernatant centrifuged at 12,000 g for 9 min. The pellet was resuspended with a dounce homogeniser in isolation buffer as above but with the addition of 0.02% digitonin, centrifuged at 12,000 g for 11 min and finally resuspended in 5 ml modified isolation buffer (as above but with EGTA reduced to 0.1 mM).
Test compounds were prepared in 384 well polypropylene assay plates as described above for the liver mitochondria assay. A stock mitochondria/Fluo5N assay solution was prepared in 5.6 ml assay buffer (120 mM mannitol, 40 mM MOPS, 5 mM KH2PO4, 60 mM KCl, 10 mM pyruvate, 2 mM malate, 2 mM MgCl2, 20 μM ADP, 1.26 μM oligomycin A, adjusted to pH 7.4) supplemented with Fluo5N pentapotassium salt (2 μM) and 1 ml mitochondria suspension, then transferred (15 μl) into the assay plate containing test compounds and incubated for 10 min at RT. Assay plates were then transferred to a FLIPR Tetra plate reader (Molecular Devices). Dye fluorescence was then measured every 3 sec for a total of 10 min. After 12 sec, a 2.5 μl bolus of Ca2+ (75 μM) was added from a source plate containing 675 μM CaCl2) in FLIPR assay buffer. IC50 values for test compounds were calculated using the fluorescence value collected at the 10 min timepoint with % inhibition calculated using the DMSO control and cyclosporin A values at […].

[5] = PBS and FaSSIF solubility; format: physicochemical; conditions: kinetic from dmso stock
Summary of the method: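 Solubility was measured from 10 mM DMSO stocks diluted into FaSSIF or PBS pH 7.4, in duplicate, then shaken at 1100 rpm for 2 hr at 25 °C. Filtrates were quantified by LC-MS/MS against an internal standard and a known-concentration standard.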

[6] = target: CYP2D6 (Homo sapiens (Human), UniProt P10635); assay: Cytochrome P450 CYP2D6 inhibition in human liver microsomes; format: in vitro ADME; conditions: probe dextromethorphan 2 µM (dextrorphan formation); 1 uM test compound, human liver microsomes; average value from two experiments; negative values = no effective inhibition
Chain of CYP2D6 (P10635 whole entry): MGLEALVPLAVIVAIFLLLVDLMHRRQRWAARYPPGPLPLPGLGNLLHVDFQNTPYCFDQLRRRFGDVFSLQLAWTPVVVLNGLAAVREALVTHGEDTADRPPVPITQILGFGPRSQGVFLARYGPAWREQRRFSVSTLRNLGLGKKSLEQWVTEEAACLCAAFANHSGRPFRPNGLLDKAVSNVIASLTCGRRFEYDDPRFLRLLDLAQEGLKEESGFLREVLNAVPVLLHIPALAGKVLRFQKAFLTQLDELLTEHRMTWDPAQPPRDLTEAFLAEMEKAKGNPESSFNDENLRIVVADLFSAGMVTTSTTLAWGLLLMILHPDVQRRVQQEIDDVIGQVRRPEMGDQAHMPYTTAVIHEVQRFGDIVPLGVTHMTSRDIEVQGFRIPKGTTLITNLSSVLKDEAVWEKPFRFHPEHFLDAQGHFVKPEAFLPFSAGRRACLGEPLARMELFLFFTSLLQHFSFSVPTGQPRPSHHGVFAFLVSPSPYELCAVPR
Summary of the method: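 Human liver microsomes (0.2 mg/mL) with 2 μM dextromethorphan in 100 mM PBS, test compound at 1 μM or 0.1-30 μM, 15 min preincubation then NADPH-started reaction for 20 min at 37° C, in duplicate. Dextrorphan formation by UPLC-MS/MS; IC50 from % decrease versus uninhibited control.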

[7] = fasted state simulated intestinal fluid (FaSSIF), fassif, Fasted state simulated intestinal fluid, 2 hr at 25° C., read-out: Solubility FaSSIF

SMILES: Cc1n[nH]c2cc(/C=C/C(=O)N[C@H]3c4ccccc4C[C@@H]3OCC3CC3)ccc12 [Example 67, (E)-N-((1S,2S)-2-(cyclopropylmethoxy)-2,3-dihydro-1H-inden-1-yl)-3-(3-methyl-1H-indazol-6-yl)acrylamide]
- mPTP Rat liver pIC50 [1]: 7.2
- hepatocyte CLint at 1 µM [2]: 42.1 µL/min/1e6 cells
- hepatocyte CLint at 1 µM [3]: 73.3 µL/min/1e6 cells
- mPTP Rat brain pIC50 [4]: 7.3

SMILES: COc1cc(C)c(NC(=O)/C=C/c2cc3[nH]nc(Cl)c3cc2F)c(C)n1 [Example 96, (2E)-3-(3-chloro-5-fluoro-1H-indazol-6-yl)-N-(6-methoxy-2,4-dimethylpyridin-3-yl)prop-2-enamide]
- mPTP Rat liver pIC50 [1]: 7.6
- hepatocyte CLint at 1 µM [2]: 6 µL/min/1e6 cells
- solubility at 2 h [5, 7]: 14 µM (≈ 5.25 µg/mL)
- hepatocyte CLint at 1 µM [3]: 13 µL/min/1e6 cells
- mPTP Rat brain pIC50 [4]: 7.8

SMILES: Cc1c(F)cccc1NC(=O)/C=C/c1ccc2c(C#N)n[nH]c2c1 [Example 51, (E)-3-(3-cyano-1H-indazol-6-yl)-N-(3-fluoro-2-methylphenyl)acrylamide]
- activity in the rat liver mitochondria assay (in words) [1]: highest activity
- mPTP Rat liver pIC50 [1]: 7.9
- hepatocyte CLint at 1 µM [2]: 11 µL/min/1e6 cells
- hepatocyte CLint at 1 µM [3]: 48.1 µL/min/1e6 cells
- activity in the rat brain mitochondria assay (in words) [4]: highest activity
- mPTP Rat brain pIC50 [4]: 8.3

SMILES: CO[C@H]1Cc2ccccc2[C@@H]1NC(=O)/C=C/c1ccc2c(C#N)n[nH]c2c1 [Example 74, (E)-3-(3-cyano-1H-indazol-6-yl)-N-((1S,2S)-2-methoxy-2,3-dihydro-1H-inden-1-yl)acrylamide]
- inhibition at 20 min, 1 µM [6]: 7.5%
- mPTP Rat liver pIC50 [1]: 8.0
- solubility at 2 h ([5]; aqueous buffer, PBS pH 7.4, 2 hr at 25° C., read-out: Solubility PBS (pH 7.4)): 1.2 µM (≈ 0.43 µg/mL)
- mPTP Rat brain pIC50 [4]: 8.0

SMILES: CCO[C@H]1Cc2ccccc2[C@@H]1NC(=O)/C=C/c1ccc2c(C)n[nH]c2c1 [Example 69, (E)-N-((1S,2S)-2-ethoxy-2,3-dihydro-1H-inden-1-yl)-3-(3-methyl-1H-indazol-6-yl)acrylamide]
- mPTP Rat liver pIC50 [1]: 7.7
- hepatocyte CLint at 1 µM [2]: 17.9 µL/min/1e6 cells
- solubility at 2 h [5, 7]: 181 µM (≈ 65.3 µg/mL)
- hepatocyte CLint at 1 µM [3]: 73 µL/min/1e6 cells
- mPTP Rat brain pIC50 [4]: 7.6

SMILES: Cc1c(F)cncc1NC(=O)/C=C/c1ccc2c(C)n[nH]c2c1 [Example 110, (2E)-N-(5-fluoro-4-methylpyridin-3-yl)-3-(3-methyl-1H-indazol-6-yl)prop-2-enamide]
- mPTP Rat liver pIC50 [1]: 7.1
- hepatocyte CLint at 1 µM [2]: 45 µL/min/1e6 cells
- hepatocyte CLint at 1 µM [3]: 307 µL/min/1e6 cells
- mPTP Rat brain pIC50 [4]: 6.7

SMILES: Cc1ncc(F)c(C)c1NC(=O)/C=C/c1ccc2c(C)n[nH]c2c1 [Example 113, (2E)-N-(5-fluoro-2,4-dimethylpyridin-3-yl)-3-(3-methyl-1H-indazol-6-yl)prop-2-enamide]
- mPTP Rat liver pIC50 [1]: 7.7
- hepatocyte CLint at 1 µM [2]: 3 µL/min/1e6 cells
- solubility at 2 h [5, 7]: 8 µM (≈ 2.59 µg/mL)
- hepatocyte CLint at 1 µM [3]: 3 µL/min/1e6 cells
- mPTP Rat brain pIC50 [4]: 7.4

SMILES: Cc1n[nH]c2cc(/C=C/C(=O)N[C@H]3c4ccccc4C[C@@H]3OCCF)ccc12 [Example 68, (E)-N-((1S,2S)-2-(2-fluoroethoxy)-2,3-dihydro-1H-inden-1-yl)-3-(3-methyl-1H-indazol-6-yl)acrylamide]
- mPTP Rat liver pIC50 [1]: 7.8
- hepatocyte CLint at 1 µM [2]: 12 µL/min/1e6 cells
- solubility at 2 h [5, 7]: 61.7 µM (≈ 23.4 µg/mL)
- hepatocyte CLint at 1 µM [3]: 34.9 µL/min/1e6 cells
- mPTP Rat brain pIC50 [4]: 7.7

SMILES: COc1cc(C)c(NC(=O)/C=C/c2cc3[nH]nc(C)c3cc2F)c(C)n1 [Example 95, (2E)-3-(5-fluoro-3-methyl-1H-indazol-6-yl)-N-(6-methoxy-2,4-dimethylpyridin-3-yl)prop-2-enamide]
- mPTP Rat liver pIC50 [1]: 7.6
- hepatocyte CLint at 1 µM [2]: 3 µL/min/1e6 cells
- solubility at 2 h [5, 7]: 76 µM (≈ 26.9 µg/mL)
- hepatocyte CLint at 1 µM [3]: 5 µL/min/1e6 cells
- mPTP Rat brain pIC50 [4]: 7.9

SMILES: COc1cc(C)c(NC(=O)/C=C/c2cc3[nH]nc(C#N)c3cc2F)c(C)n1 [Example 98, (2E)-3-(3-cyano-5-fluoro-1H-indazol-6-yl)-N-(6-methoxy-2,4-dimethylpyridin-3-yl)prop-2-enamide]
- mPTP Rat liver pIC50 [1]: 6.9
- hepatocyte CLint at 1 µM [2]: 9 µL/min/1e6 cells
- hepatocyte CLint at 1 µM [3]: 7 µL/min/1e6 cells
- mPTP Rat brain pIC50 [4]: 7.0

SMILES: COCc1c(F)cnc(C)c1NC(=O)/C=C/c1ccc2c(C)n[nH]c2c1 [Example 117, (2E)-N-[5-fluoro-4-(methoxymethyl)-2-methylpyridin-3-yl]-3-(3-methyl-1H-indazol-6-yl)prop-2-enamide]
- mPTP Rat liver pIC50 [1]: 6.6
- hepatocyte CLint at 1 µM [2]: 3 µL/min/1e6 cells
- solubility at 2 h [5, 7]: 86 µM (≈ 30.5 µg/mL)
- mPTP Rat brain pIC50 [4]: 5.9

SMILES: COc1cc(C)c(NC(=O)/C=C/c2cc3[nH]nc(F)c3cc2F)c(C)n1 [Example 97, (2E)-3-(3,5-difluoro-1H-indazol-6-yl)-N-(6-methoxy-2,4-dimethylpyridin-3-yl)prop-2-enamide]
- mPTP Rat liver pIC50 [1]: 7.5
- solubility at 2 h [5, 7]: 35 µM (≈ 12.5 µg/mL)
- mPTP Rat brain pIC50 [4]: 7.5

SMILES: Cc1n[nH]c2cc(/C=C/C(=O)N[C@H]3c4ccccc4C[C@@H]3OCC3COC3)ccc12 [Example 66, (E)-3-(3-methyl-1H-indazol-6-yl)-N-((1S,2S)-2-(oxetan-3-ylmethoxy)-2,3-dihydro-1H-inden-1-yl)acrylamide]
- mPTP Rat liver pIC50 [1]: 7.2
- hepatocyte CLint at 1 µM [2]: 25.4 µL/min/1e6 cells
- hepatocyte CLint at 1 µM [3]: 36.1 µL/min/1e6 cells
- mPTP Rat brain pIC50 [4]: 7.3
